# Source: ChEMBL document CHEMBL3867464, “Novel substituted aminothiazoles as potent and selective anti-hepatocellular carcinoma agents” (Bioorg Med Chem Lett, 2016)
# Experiments:
# Huh-7 [1] = test: Selectivity index, ratio of CC50 for human THLE2 cells to CC50 for human HuH7 cells; assay type: functional
# [2] = Cytotoxicity against human HuH7 cells assessed as decrease in cell viability after 72 hrs by MTT assay; assay type: functional; details: Huh-7, 72 h
# [3] = Cytotoxicity against human THLE2 cells assessed as decrease in cell viability after 72 hrs by MTT assay; assay type: toxicity, cell-based; details: thle-2, 72 h
# [4] = Cytotoxicity against human PH5CH cells assessed as decrease in cell viability after 72 hrs by MTT assay; assay type: toxicity, cell-based
# Huh-7 [5] = test: Selectivity index, ratio of CC50 for human PH5CH cells to CC50 for human HuH7 cells; assay type: functional
# [6] = Solubility of the compound in ethyl acetate solution; assay type: physicochemical
# [7] = Solubility of the compound in ethanol solution; assay type: physicochemical
# [8] = Solubility of the compound in methylene chloride solution; assay type: physicochemical
# [9] = Drug level in mouse liver microsomes treated with IHVR-04042 assessed as CYP450-mediated compound formation measured at 60 mins; assay type: ADME; details: 1 h
# [10] = Drug level in human liver microsomes treated with IHVR-04042 assessed as CYP450-mediated compound formation measured at 60 mins; assay type: ADME; details: 1 h
# [11] = Cmax in CD-1 mouse at 10 mg/kg, po; assay type: ADME, organism-based; design: dose 10 mg/kg, route oral; details: in vivo
# [12] = Oral bioavailability in CD-1 mouse at 10 mg/kg; assay type: ADME, organism-based; details: in vivo
# [13] = Stability in mouse liver microsomes assessed as parent compound remaining measured at 60 mins; assay type: ADME; details: read-out: Stability
# [14] = Aqueous solubility of the compound at pH 4; assay type: physicochemical; details: buffer
# [15] = Aqueous solubility of the compound at pH 7.4; assay type: physicochemical; details: buffer
# [16] = AUClast in CD-1 mouse at 10 mg/kg, po; assay type: ADME, organism-based; details: in vivo
# [17] = Drug metabolism in mouse liver microsomes assessed as CYP450-mediated 4-(pyridin-2-yl)-2-(pyrimidin-2-ylamino)thiazole-5-carboxylic acid formation measured at 60 mins; assay type: ADME; details: 1 h
# [18] = AUClast in CD-1 mouse at 2 mg/kg, iv; assay type: ADME, organism-based; details: in vivo
# [19] = Tmax in CD-1 mouse at 2 mg/kg, iv; assay type: ADME, organism-based; details: in vivo
# [20] = Tmax in CD-1 mouse at 10 mg/kg, po; assay type: ADME, organism-based; details: in vivo
# [21] = Drug metabolism in human liver microsomes assessed as CYP450-mediated 4-(pyridin-2-yl)-2-(pyrimidin-2-ylamino)thiazole-5-carboxylic acid formation measured at 60 mins; assay type: ADME; details: 1 h
# [22] = Stability in human liver microsomes assessed as parent compound remaining measured at 60 mins; assay type: ADME; details: read-out: Stability
# [23] = Half life in CD-1 mouse at 10 mg/kg, po; assay type: ADME, organism-based; details: in vivo
# [24] = Volume of distribution at steady state in CD-1 mouse at 2 mg/kg, iv; assay type: ADME, organism-based; details: in vivo, read-out: Vdss
# [25] = Half life in CD-1 mouse at 2 mg/kg, iv; assay type: ADME, organism-based; details: in vivo
# [26] = Drug level in mouse liver microsomes treated with isopropyl 4-(pyrazin-2-yl)-2-(pyrimidin-2-ylamino)thiazole-5-carboxylate assessed as CYP450-mediated compound formation measured at 60 mins; assay type: ADME; details: 1 h
# [27] = Drug level in human liver microsomes treated with isopropyl 4-(pyrazin-2-yl)-2-(pyrimidin-2-ylamino)thiazole-5-carboxylate assessed as CYP450-mediated compound formation measured at 60 mins; assay type: ADME; details: 1 h
# [28] = Volume of distribution at steady state in CD-1 mouse at 1 mg/kg, iv; assay type: ADME, organism-based; details: in vivo, read-out: Vdss
# [29] = Tmax in CD-1 mouse at 1 mg/kg, iv; assay type: ADME, organism-based; details: in vivo
# [30] = Tmax in CD-1 mouse at 2.5 mg/kg, po; assay type: ADME, organism-based; details: in vivo
# [31] = AUClast in CD-1 mouse at 1 mg/kg, iv; assay type: ADME, organism-based; details: in vivo
# [32] = Half life in CD-1 mouse at 1 mg/kg, iv; assay type: ADME, organism-based; details: in vivo
# [33] = Cmax in CD-1 mouse at 2.5 mg/kg, po; assay type: ADME, organism-based; design: dose 2.5 mg/kg, route oral; details: in vivo
# [34] = Drug metabolism in human liver microsomes assessed as CYP450-mediated 4-(pyrazin-2-yl)-2-(pyrimidin-2-ylamino)thiazole-5-carboxylic acid formation measured at 60 mins; assay type: ADME; details: 1 h
# [35] = Cytotoxicity against human hepatic cancer cells derived from HCC patient assessed as change in cell proliferation by measuring response rate at 1 uM after 48 hrs by Ki-67 immunostaining based assay; assay type: functional, Cancer cell lines
# [36] = AUClast in CD-1 mouse at 2.5 mg/kg, po; assay type: ADME, organism-based; details: in vivo
# [37] = Drug metabolism in mouse liver microsomes assessed as CYP450-mediated 4-(pyrazin-2-yl)-2-(pyrimidin-2-ylamino)thiazole-5-carboxylic acid formation measured at 60 mins; assay type: ADME; details: 1 h
# [38] = Oral bioavailability in CD-1 mouse at 2.5 mg/kg; assay type: ADME, organism-based; details: in vivo
# [39] = Drug uptake in CD-1 mouse liver at 2.5 mg/kg, po; assay type: ADME, organism-based; details: in vivo
compound,measurement,setting,value
CCOC(=O)c1sc(Nc2ncccn2)nc1-c1ncccc1C,Selectivity Index,Huh-7 [1],1.07
same,CC50,[2],46100 nM
same,CC50,[3],49.1 µM
same,CC50,[4],50 µM
CC(C)OC(=O)c1sc(Nc2ncccn2)nc1-c1ncccn1,Selectivity Index,Huh-7 [1],30.96
same,CC50,[2],1620 nM
same,CC50,[3],50 µM
same,Selectivity Index,Huh-7 [5],30.96
same,CC50,[4],50 µM
CC(C)OC(=O)c1sc(N(COP(=O)(OC(C)(C)C)OC(C)(C)C)c2ncccn2)nc1-c1cnccn1,solubility,[6],Soluble
same,solubility,[7],Soluble
same,Selectivity Index,Huh-7 [1],51.28
same,CC50,[2],980 nM
same,CC50,[3],50 µM
same,Selectivity Index,Huh-7 [5],51.28
same,solubility,[8],Soluble
same,CC50,[4],50 µM
CC(C)OC(=O)c1sc(Nc2ncccn2)nc1-c1ccccn1,Selectivity Index,Huh-7 [1],123.39
same,CC50,[2],410 nM
same,CC50,[3],50 µM
same,CC50,[4],49.8 µM
CCOC(=O)Cc1sc(Nc2ncccn2)nc1-c1ccccn1,Selectivity Index,Huh-7 [1],35.94
same,CC50,[2],1390 nM
same,CC50,[3],50 µM
same,Selectivity Index,Huh-7 [5],35.94
same,CC50,[4],50 µM
O=C(O)c1sc(Nc2ncccn2)nc1-c1ccccn1,Drug metabolism,[9],Metabolite_Detected
same,Drug metabolism,[10],Metabolite_Detected
c1ccc(-c2csc(NCc3ncccn3)n2)nc1,Selectivity Index,Huh-7 [1],1.22
same,CC50,[2],40500 nM
same,CC50,[3],49.6 µM
same,CC50,[4],49.8 µM
CCOC(=O)CCc1sc(Nc2ncccn2)nc1-c1ccccn1,Selectivity Index,Huh-7 [1],5.1
same,CC50,[2],2050 nM
same,CC50,[3],10.5 µM
same,Selectivity Index,Huh-7 [5],4.93
same,CC50,[4],10.1 µM
CCOC(=O)c1sc(Nc2ncccn2)nc1-c1ccccn1,Cmax,[11],94.1 ng/mL
same,Selectivity Index,Huh-7 [1],253.954
same,bioavailability,[12],10%
same,remaining at 1 h,[13],43.3%
same,CC50,[2],180 nM
same,solubility,[14],112.84 µM
same,solubility,[15],23.84 µM
same,AUClast,[16],19.5 ng·mL·h
same,Drug metabolism,[17],Metabolite_Detected
same,AUClast,[18],224 ng·mL·h
same,Tmax,[19],0 h
same,Selectivity Index,Huh-7 [5],214.328
same,Tmax,[20],34.8 min
same,Drug metabolism,[21],Metabolite_Detected
same,remaining at 1 h,[22],63.1%
same,half-life,[23],115 min
same,Vd,[24],1.45 L/kg
same,half-life,[25],14.4 min
CC(C)OC(=O)OCN(c1ncccn1)c1nc(-c2cnccn2)c(C(=O)OC(C)C)s1,solubility,[6],Soluble
same,solubility,[7],Soluble
same,Selectivity Index,Huh-7 [1],528.17
same,CC50,[2],95 nM
same,CC50,[3],50 µM
same,Selectivity Index,Huh-7 [5],528.17
same,solubility,[8],Soluble
same,CC50,[4],50 µM
CCOC(=O)c1sc(Nc2ncccn2)nc1-c1cnccn1,Selectivity Index,Huh-7 [1],80.06
same,CC50,[2],590 nM
same,CC50,[3],47.1 µM
same,Selectivity Index,Huh-7 [5],85.03
same,CC50,[4],50 µM
CC(C)OC(=O)c1sc(Nc2ncccn2)nc1-c1ccncn1,Selectivity Index,Huh-7 [1],38.11
same,CC50,[2],1210 nM
same,CC50,[3],46.2 µM
same,Selectivity Index,Huh-7 [5],41.24
same,CC50,[4],50 µM
CCOC(=O)c1sc(Nc2ncccn2)nc1-c1cc(C(F)(F)F)ccn1,Selectivity Index,Huh-7 [1],90.32
same,CC50,[2],170 nM
same,CC50,[3],15 µM
same,Selectivity Index,Huh-7 [5],56.24
same,CC50,[4],9.34 µM
CCOCc1sc(Nc2ncccn2)nc1-c1ccccn1,Selectivity Index,Huh-7 [1],13.08
same,CC50,[2],3190 nM
same,CC50,[3],41.8 µM
same,Selectivity Index,Huh-7 [5],12.23
same,CC50,[4],39 µM
CCOC(=O)Cc1sc(NCc2ncccn2)nc1-c1ccccn1,Selectivity Index,Huh-7 [1],1.01
same,CC50,[2],49400 nM
same,CC50,[3],50 µM
same,Selectivity Index,Huh-7 [5],1.01
same,CC50,[4],50 µM
CCOCc1sc(NCc2ncccn2)nc1-c1ccccn1,Selectivity Index,Huh-7 [1],1.11
same,CC50,[2],44800 nM
same,CC50,[3],49.6 µM
same,CC50,[4],50 µM
CCOC(=O)c1sc(NCc2ncccn2)nc1-c1ccccn1,Selectivity Index,Huh-7 [1],1
same,CC50,[2],50000 nM
same,Selectivity Index,Huh-7 [5],1
O=C(O)c1sc(Nc2ncccn2)nc1-c1cnccn1,Drug metabolism,[26],Metabolite_Detected
same,Drug metabolism,[27],Metabolite_Detected
CC(C)OC(=O)c1sc(N(COP(=O)(OC(C)(C)C)OC(C)(C)C)c2ncccn2)nc1-c1ccccn1,solubility,[6],Soluble
same,solubility,[7],Soluble
same,Selectivity Index,Huh-7 [1],111.42
same,CC50,[2],380 nM
same,CC50,[3],42.2 µM
same,Selectivity Index,Huh-7 [5],131.93
same,solubility,[8],Soluble
same,CC50,[4],50 µM
O=C(O)CCc1sc(Nc2ncccn2)nc1-c1ccccn1,Selectivity Index,Huh-7 [1],1.87
same,CC50,[2],14100 nM
same,CC50,[3],26.4 µM
same,Selectivity Index,Huh-7 [5],1.25
same,CC50,[4],17.7 µM
COCCOCN(c1ncccn1)c1nc(-c2cnccn2)c(C(=O)OC(C)C)s1,solubility,[6],Soluble
same,solubility,[7],Soluble
same,CC50,[2],50000 nM
same,CC50,[3],50 µM
same,Selectivity Index,Huh-7 [5],1
same,solubility,[8],Soluble
same,CC50,[4],50 µM
CCOC(=O)c1sc(Nc2ncccn2)nc1-c1ccncn1,Selectivity Index,Huh-7 [1],25.46
same,CC50,[2],1600 nM
same,CC50,[3],40.8 µM
same,Selectivity Index,Huh-7 [5],24.97
same,CC50,[4],40 µM
CC(C)OC(=O)c1sc(Nc2ncccn2)nc1-c1cnccn1,Vd,[28],3.49 L/kg
same,Tmax,[29],0 h
same,Tmax,[30],26.4 min
same,AUClast,[31],142 ng·mL·h
same,half-life,[32],26.4 min
same,Cmax,[33],48.7 ng/mL
same,Selectivity Index,Huh-7 [1],471.7
same,remaining at 1 h,[13],36.2%
same,CC50,[2],110 nM
same,Drug metabolism,[34],Metabolite_Detected
same,CC50,[3],50 µM
same,solubility,[14],6.35 µM
same,solubility,[15],5.2 µM
same,Activity,[35],38%
same,AUClast,[36],21.6 ng·mL·h
same,Drug metabolism,[37],Metabolite_Detected
same,Selectivity Index,Huh-7 [5],471.7
same,bioavailability,[38],15.2%
same,remaining at 1 h,[22],70.9%
same,Drug uptake,[39],33 ng/g
same,CC50,[4],50 µM
c1ccc(-c2csc(Nc3ncccn3)n2)nc1,Selectivity Index,Huh-7 [1],35.45
same,CC50,[2],1100 nM
same,Selectivity Index,Huh-7 [5],40.294
